# Entries after “also recorded” stand apart in the source; their conditions may differ.
# How the values were obtained:
# [1] = target: T1, extracellular domain of EphB2 (Homo sapiens, UniProt P29323); experiment: In vitro pull-down of recombinant EphB2-Fc with biotinylated Rhy on streptavidin beads; format: binding; conditions: western blot
# T1 construct: purchased R&D Systems
# T1 sequence (P29323 19-543 limits assumed): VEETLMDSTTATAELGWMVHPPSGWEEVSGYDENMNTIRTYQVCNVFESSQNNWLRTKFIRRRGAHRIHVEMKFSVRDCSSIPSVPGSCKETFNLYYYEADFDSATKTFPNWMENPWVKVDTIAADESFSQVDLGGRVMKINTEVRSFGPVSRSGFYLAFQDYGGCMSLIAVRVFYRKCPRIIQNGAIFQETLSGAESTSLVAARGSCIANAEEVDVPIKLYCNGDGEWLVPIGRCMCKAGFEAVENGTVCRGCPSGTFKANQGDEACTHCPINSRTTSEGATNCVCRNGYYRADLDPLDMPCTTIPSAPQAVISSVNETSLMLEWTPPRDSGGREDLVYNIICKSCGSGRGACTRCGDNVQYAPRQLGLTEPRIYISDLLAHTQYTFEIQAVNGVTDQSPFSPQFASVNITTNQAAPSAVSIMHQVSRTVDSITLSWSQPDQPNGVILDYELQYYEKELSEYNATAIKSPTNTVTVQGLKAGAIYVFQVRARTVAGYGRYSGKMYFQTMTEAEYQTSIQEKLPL
# Description: For the pull-down analysis, Bio-Rhy was bound to streptavidin magnetic beads for 1 h, the beads was then incubated with recombinant EphA4-Fc or EphB2-Fc in the presence of 0.5% BSA for 1 h. After incubation, the beads were washed 4 times with DPBS and the presence of Eph in the complex was determined by western blot analysis.
# APP/PS1 mice = experiment: Amyloid plaque deposition and microglial activation in APP/PS1 mice (immunohistochemistry); format: in vivo, mouse
# Description: For immunohistochemical analysis, mice were anesthetised, transcardially perfused with saline followed by 4% paraformaldehyde (pH 7.4), and the brains were removed^66. After overnight postfixation and a series of cryoprotection, the brains were coronally sectioned at a thickness of 20 μm using a cryostat (Microm HM 560, Thermo Scientific). The sections were stained with β-amyloid (1:200) and Iba1 (1:500) antibodies overnight at 4° C., followed by incubation with appropriate fluorescence-conjugated secondary antibodies and mounted in Hydromount (National diagnostics). Images were taken with a Leica DMRA microscope. For 3,3-diaminobenzidine (DAB) staining, the sections were rehydrated and subjected to antigen retrieval. […]
# Images from the same experiment were obtained using identical acquisition settings, and images were analyzed with Metamorph software (Meta Image Series 7.5, Universal Imaging Corp.)^24,58. For quantifying the EphA4 and PSD-95 clusters, two dendrite segments from each neuron were analyzed for quantification. […] The basal threshold values for the background of all images in each experiment were measured. […] To measure the density of clusters in dendrites, the images were first thresholded to include the clusters with intensity 2-fold greater than the signal of an adjacent dendrite, and the total number of clusters and dendrite length were measured automatically. […]
# EphA4 = target: T2, EphA4 (Rattus norvegicus, UniProt D3ZZK3); experiment: Ephrin-A1-induced EphA4 cluster assay in cultured hippocampal neurons; format: cell-based; conditions: cultured hippocampal neurons 3 DIV, different concentrations
# T2 construct: endogenous in cells; host or cells: primary rat cortical neurons (A5), primary rat hippocampal neurons (A7)
# Description: For EphA4 clustering, neurons were stained with anti-EphA4 and anti-Tau-1 antibodies. For the growth cone collapse assay, neurons were stained with Alexa Fluor 555-conjugated phalloidin (Molecular Probes) for filamentous actin and anti-Tau-1 antibody for axons. Collapsed growth cones were scored in a double-blinded manner. The experiments were repeated at least 3 times, and >50 neurons were analyzed for each experiment. Data are presented as mean±SEM.
# Rat hippocampal neurons were seeded on 48-well plates coated with poly-D-lysine (50 μg/mL) at 6000 cells per well. Neurons were incubated with Neurobasal medium (Invitrogen) supplemented with 2% B27 (Invitrogen). […] Neurons were then immunostained with anti-EphA4 and anti-Tau-1 antibodies. The cellular imaging and quantification of EphA4 clusters was performed using IN Cell Analyzer 6000 high content assay system (GE Healthcare). EphA4 clusters were quantified by calculating the proportion of total area of EphA4 clusters on axons against Tau positive area. Statistical analysis was performed with one-way ANOVA followed by Newman-Keuls Multiple Comparison Test (Prism 5 GraphPad Software).
# T2 sequence (D3ZZK3 20-986): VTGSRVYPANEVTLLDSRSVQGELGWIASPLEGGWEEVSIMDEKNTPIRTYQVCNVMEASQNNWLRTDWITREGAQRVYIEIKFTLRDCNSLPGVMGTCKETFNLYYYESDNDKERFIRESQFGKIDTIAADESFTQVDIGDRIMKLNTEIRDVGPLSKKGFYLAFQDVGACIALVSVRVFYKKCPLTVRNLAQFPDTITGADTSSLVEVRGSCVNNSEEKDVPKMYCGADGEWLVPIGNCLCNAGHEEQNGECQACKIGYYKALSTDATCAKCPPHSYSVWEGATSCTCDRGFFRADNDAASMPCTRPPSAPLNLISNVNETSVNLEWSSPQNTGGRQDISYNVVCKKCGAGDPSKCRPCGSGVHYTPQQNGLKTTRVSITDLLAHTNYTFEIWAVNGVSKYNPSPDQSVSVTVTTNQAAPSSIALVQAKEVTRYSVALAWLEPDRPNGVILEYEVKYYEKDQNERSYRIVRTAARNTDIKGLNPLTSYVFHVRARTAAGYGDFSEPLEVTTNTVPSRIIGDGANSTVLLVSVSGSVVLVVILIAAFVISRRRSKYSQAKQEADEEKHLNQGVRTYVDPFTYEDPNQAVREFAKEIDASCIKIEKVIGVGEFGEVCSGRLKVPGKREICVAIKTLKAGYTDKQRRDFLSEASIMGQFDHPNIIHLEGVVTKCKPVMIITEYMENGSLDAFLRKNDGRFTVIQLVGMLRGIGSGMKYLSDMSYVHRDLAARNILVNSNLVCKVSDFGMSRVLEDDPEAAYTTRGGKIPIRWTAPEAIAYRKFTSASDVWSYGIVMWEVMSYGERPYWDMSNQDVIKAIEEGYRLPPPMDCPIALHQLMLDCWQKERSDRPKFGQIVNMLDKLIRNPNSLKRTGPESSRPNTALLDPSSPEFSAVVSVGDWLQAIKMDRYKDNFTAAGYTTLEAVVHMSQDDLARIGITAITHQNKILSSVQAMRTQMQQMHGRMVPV
compound,measurement,setting,value
"CC[C@H]1CN2CC[C@]3(C(=O)Nc4ccccc43)[C@@H]2C[C@@H]1/C(=C\OC)C(=O)OC [Rhy, methyl (7β,16E,20α)-16-(methoxymethylene)-2-oxocorynoxan-17-oate]","binding to the extracellular domain of EphB2 (pull-down, words)",[1],not that of EphB2
same,amyloid plaques in cortex and hippocampus,"APP/PS1 mice; APP/PS1 mice, 10-week administration of Rhy versus water",number and total area of amyloid plaques decreased significantly
same,"plaque-associated reactive microglia, Iba1 staining",APP/PS1 mice; cortex of APP/PS1 mice administered with Rhy,significant reduction of plaque-associated reactive microglia
same,ephrin-A1-induced EphA4 clustering,EphA4,reduced the ephrin-A1-induced EphA4 clustering; also recorded: abolished ephrin-A1-induced EphA4 clustering

# Reference: patent US9629830B2, “EphA4 inhibitors as neuroprotective agents” (The Hong Kong University of Science and Technology, priority 2013, dated 2017)
